In this experiment the target is T1, human glucagon receptor (Homo sapiens, UniProt P47871).
T1 construct: expressed in transfected cells; host or cells: membranes of BHK cells, clone BHK hGCGR A3*25
The experiment in a line: Assay (II)(b): glucagon receptor binding, [125I]-glucagon displacement, SPA on BHK membranes. As to conditions: displacement of [125I]-glucagon, membranes with human glucagon receptor; read-out: IC50 GlucagonR. As for the experimental part:
Assay (II): GLP-1 and Glucagon Receptor Binding The purpose of this assay is to test the in vitro receptor binding activity of the GLP-1 derivatives of the invention. (b) Glucagon Receptor Binding The glucagon receptor (glucagonR) binding activity is a measure of affinity of a derivative for the human glucagon receptor. The glucagon receptor binding of each derivative were determined with competitive binding, displacing [^125I]-glucagon bound to glucagon receptors expressed in cell membranes associated with wheat germ agglutinin (WGA) scintillation proximity assay (SPA) beads. Each derivative was added in a series of concentrations to isolated membranes comprising the human glucagon receptor and displacement of the labelled ligand was monitored. The receptor binding was reported as the concentration at which half of the labelled ligand is displaced from the receptor, the IC^50 value. The following chemicals were used in the assay: DMEM w Glutamax (Gibco 61965-026), Pen/strep (Invitrogen 15140-122), G418 (Invitrogen 10131-027), Versene (Gibco 15040), 1 M Hepes (Gibco 15630), PBS (Invitrogen 14190-094), fetal calf serum (Invitrogen 16140-071), MgCl2 (Merck 1.05832.1000), EDTA (Invitrogen 15575-038), CaCl2 (Sigma, C5080), Tween 20 (Amresco 0850C335), ovalbumin (Sigma A5503), SPA particles (wheat germ agglutinin (WGA) SPA beads, Perkin Elmer RPNQ0001), [125I]-glucagon (produced in-house), OptiPlate™-96 (Packard 6005290). HME buffer consisted of 25 mM HEPES, 2 mM MgCl2 and 1 mM EDTA, and pH was adjusted to 7.4. Assay buffer consisted of 50 mM HEPES supplemented with 5 mM MgCl2, 1 mM CaCl2, 0.02% Tween 20 and 0.1% Ovalbumin, and pH was adjusted to 7.4. The cells used in this assay (clone BHK hGCGR A3*25) were BHK cells stable transfected with an expression plasmid comprising the cDNA encoding the human glucagon receptor. The cells were grown at 5% CO2 in DMEM, 10% fetal calf serum, 1% Pen/Strep (Penicillin/Streptomycin) and 1.0 mg/ml of the selection marker G418. To make a membrane preparation the cells were grown to approximately 80% confluence. The cells were washed twice in phosphate-buffered saline and harvested. The cells were pelleted using a brief centrifugation and the cell pellet was kept on ice. Lyse the cells by adding approx. 5 ml HME buffer, mix by pipetting and snap freeze in liquid nitrogen. Thaw quickly and add HME buffer to 10 ml. The cell pellet was homogenised with an ULTRA-THURRAX dispersing instrument for 20-30 seconds. The homogenate was centrifuged at 20.000×G, 4° C. for 10 minutes. The pellet was resuspended (homogenised) in 1-2 ml HME buffer. The protein concentration was determined. The membranes were aliquoted and snapfrozen in liquid nitrogen and stored at minus 80° C. • 1. For the receptor binding assay 50 μl of the assay buffer was added to each well of an assay plate. • 2. Test compounds were serially diluted to give the following concentrations: 8×10EE-7 M, 8×10EE-8 M, 8×10EE-9 M, 8×10EE-10 M, 8×10EE-11 M, 8×10EE-12 M and 8×10EE-13 M. Twenty-five μl were added to appropriate wells in the assay plate. • 3. Cell membrane aliquots were thawed and diluted to their working concentration. Fifty μl were added to each well in the assay plate. • 4. WGA SPA beads were suspended in assay buffer at 20 mg/ml. The suspension was diluted to 10 mg/ml in assay buffer just prior to addition to the assay plate. Fifty μl were added to each well in the assay plate. • 5. The incubation was started by adding 25 μl of 480 pM solution of [125I]-glucagon to each well of the assay plate. A 25 μl aliquot was reserved for measuring total counts/well. • 6. The assay plate was incubated for 2 h at 25° C. • 7. The assay plate was centrifuged for 10 min at 1500 rpm. • 8. The assay plate was read in a Perkin Elmer TopCount NXT instrument. Calculations The data from the TopCount instrument were transferred to GraphPad Prism software. The software averaged the values for the replicates and performed a non-linear regression. […]
(In a radioligand displacement assay an active substance lowers the binding of a labelled ligand.)

*1 amine or outer side, *2 acyl side, *3 side chain or, on linkers, in order; H or OH if unused. Where a SMILES comes first, the peptide text is derived from it. Side-chain parts run from the residue outwards. [ ]: non-standard residue; d: D form. The star is where a group is joined. C18 diacid = O=C(O)CCCCCCCCCCCCCCCCC(=O)*; γGlu = O=C(O)[C@H](CCC(=O)[*:2])N[*:1]; Desaminohistidyl = O=C(CCc1c[nH]cn1)*; AEEA = NCCOCCOCC(=O)O; Aib = CC(C)(N)C(=O)O

By IC50 is commonly meant the concentration at which inhibition is half-maximal.

T1 sequence (P47871 26-477): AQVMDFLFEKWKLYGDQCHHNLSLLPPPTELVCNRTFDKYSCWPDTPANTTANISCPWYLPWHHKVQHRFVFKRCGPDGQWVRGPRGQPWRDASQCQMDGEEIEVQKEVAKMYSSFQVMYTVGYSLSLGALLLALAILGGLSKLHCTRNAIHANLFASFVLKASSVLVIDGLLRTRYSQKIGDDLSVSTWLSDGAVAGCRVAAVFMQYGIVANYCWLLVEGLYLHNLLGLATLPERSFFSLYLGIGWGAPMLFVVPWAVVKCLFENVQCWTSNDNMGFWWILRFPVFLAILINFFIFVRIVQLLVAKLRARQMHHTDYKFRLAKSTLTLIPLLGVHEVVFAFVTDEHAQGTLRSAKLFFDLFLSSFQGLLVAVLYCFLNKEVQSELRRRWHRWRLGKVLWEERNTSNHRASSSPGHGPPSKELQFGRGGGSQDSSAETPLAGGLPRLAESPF

Turning to `CC[C@H](C)[C@H](NC(=O)[C@H](Cc1ccccc1)NC(=O)[C@H](CCC(=O)O)NC(=O)[C@H](CCCNC(=N)N)NC(=O)[C@H](C)NC(=O)[C@H](C)NC(=O)[C@H](CCC(N)=O)NC(=O)[C@H](CCC(=O)O)NC(=O)[C@H](CCC(=O)O)NC(=O)[C@H](CC(C)C)NC(=O)[C@H](Cc1ccc(O)cc1)NC(=O)[C@H](CCCCN)NC(=O)[C@H](CO)NC(=O)[C@@H](NC(=O)[C@H](CC(=O)O)NC(=O)[C@H](CO)NC(=O)[C@@H](NC(=O)[C@H](Cc1ccccc1)NC(=O)[C@@H](NC(=O)CNC(=O)[C@H](Cc1c[nH]cn1)NC(=O)C(C)(C)NC(=O)CCc1c[nH]cn1)[C@@H](C)O)[C@@H](C)O)C(C)C)C(=O)N[C@@H](C)C(=O)N[C@@H](Cc1c[nH]c2ccccc12)C(=O)N[C@@H](CC(C)C)C(=O)N[C@@H](CC(C)C)C(=O)N[C@@H](CCCCNC(=O)CNC(=O)[C@H](CO)NC(=O)CC[C@H](NC(=O)CC[C@H](NC(=O)CCCCCCCCCCCCCCCCC(=O)O)C(=O)O)C(=O)O)C(=O)N[C@H](C(N)=O)[C@@H](C)O` [Example 4, N^ε34-[2-[[(2S)-2-[[(4S)-4-carboxy-4-[[(4S)-4-carboxy-4-(17-carboxyheptadecanoylamino)butanoyl]amino]butanoyl]amino]-3-hydroxypropanoyl]amino]acetyl]-[Imp7,Aib8,His9,Lys18,Glu22,Arg26,Leu33,Thr35]-GLP-1-(7-35)-peptide amide] (Desaminohistidyl-[Aib]HGTFTSDVSKYLEEQAAREFIAWLLK([Gly-Ser-γGlu-γGlu-C18 diacid])T-NH2), the IC50 came out at 4.3 nM.
With `CC[C@H](C)[C@H](NC(=O)[C@H](Cc1ccccc1)NC(=O)[C@H](CCC(=O)O)NC(=O)[C@H](CCCNC(=N)N)NC(=O)[C@H](C)NC(=O)[C@H](C)NC(=O)[C@H](CCC(N)=O)NC(=O)[C@H](CCC(=O)O)NC(=O)[C@H](CCC(=O)O)NC(=O)[C@H](CC(C)C)NC(=O)[C@H](Cc1ccc(O)cc1)NC(=O)[C@H](CCCCN)NC(=O)[C@H](CO)NC(=O)[C@@H](NC(=O)[C@H](CC(=O)O)NC(=O)[C@H](CO)NC(=O)[C@@H](NC(=O)[C@H](Cc1ccccc1)NC(=O)[C@@H](NC(=O)CNC(=O)[C@H](Cc1c[nH]cn1)NC(=O)C(C)(C)NC(=O)CCc1c[nH]cn1)[C@@H](C)O)[C@@H](C)O)C(C)C)C(=O)N[C@@H](C)C(=O)N[C@@H](Cc1c[nH]c2ccccc12)C(=O)N[C@@H](CC(C)C)C(=O)N[C@@H](CC(C)C)C(=O)N[C@@H](CCCCNC(=O)COCCOCCNC(=O)COCCOCCNC(=O)CC[C@H](NC(=O)CC[C@H](NC(=O)CCCCCCCCCCCCCCCCC(=O)O)C(=O)O)C(=O)O)C(=O)N[C@H](C(N)=O)[C@@H](C)O` [Example 5, N^ε34-[2-[2-[2-[[2-[2-[2-[[(4S)-4-carboxy-4-[[(4S)-4-carboxy-4-(17-carboxyheptadecanoylamino)butanoyl]amino]butanoyl]amino]ethoxy]ethoxy]acetyl]amino]ethoxy]ethoxy]acetyl]-[Imp7,Aib8,His9,Lys18,Glu22,Arg26,Leu33,Thr35]-GLP-1-(7-35)-peptide amide] (Desaminohistidyl-[Aib]HGTFTSDVSKYLEEQAAREFIAWLLK([AEEA-AEEA-γGlu-γGlu-C18 diacid])T-NH2), the IC50 amounted to 4.3 nM.
As for `CC[C@H](C)[C@H](NC(=O)[C@H](Cc1ccccc1)NC(=O)[C@H](CCC(=O)O)NC(=O)[C@H](CCCNC(=N)N)NC(=O)[C@H](C)NC(=O)[C@H](C)NC(=O)[C@H](CCCNC(=N)N)NC(=O)[C@H](C)NC(=O)[C@H](CCC(=O)O)NC(=O)[C@H](CC(C)C)NC(=O)[C@H](Cc1ccc(O)cc1)NC(=O)[C@H](CCCCN)NC(=O)[C@H](CO)NC(=O)[C@@H](NC(=O)[C@H](CC(=O)O)NC(=O)[C@H](CO)NC(=O)[C@@H](NC(=O)[C@H](Cc1ccccc1)NC(=O)[C@@H](NC(=O)CNC(=O)[C@H](Cc1c[nH]cn1)NC(=O)C(C)(C)NC(=O)CCc1c[nH]cn1)[C@@H](C)O)[C@@H](C)O)C(C)C)C(=O)N[C@@H](C)C(=O)N[C@@H](Cc1c[nH]c2ccccc12)C(=O)N[C@@H](CC(C)C)C(=O)N[C@@H](CC(C)C)C(=O)N[C@@H](CCCCNC(=O)CC[C@H](NC(=O)COCCOCCNC(=O)COCCOCCNC(=O)CC[C@H](NC(=O)CC[C@H](NC(=O)CCCCCCCCCCCCCCCCC(=O)O)C(=O)O)C(=O)O)C(=O)O)C(=O)NCC(=O)NCC(=O)NCC(=O)O` [Example 31, N^ε34-[(4S)-4-carboxy-4-[[2-[2-[2-[[2-[2-[2-[[(4S)-4-carboxy-4-[[(4S)-4-carboxy-4-(17-carboxyheptadecanoylamino)butanoyl]amino]butanoyl]amino]ethoxy]ethoxy]acetyl]amino]ethoxy]ethoxy]acetyl]amino]butanoyl]-[Imp7,Aib8,His9,Lys18,Ala22,Arg23,Arg26,Leu33,Gly36]-GLP-1-(7-37)-peptide] (Desaminohistidyl-[Aib]HGTFTSDVSKYLEARAAREFIAWLLK([γGlu-AEEA-AEEA-γGlu-γGlu-C18 diacid])GGG-OH), the IC50 was found to be 3.7 nM.
For `CC[C@H](C)[C@H](NC(=O)[C@H](Cc1ccccc1)NC(=O)[C@H](CCC(=O)O)NC(=O)[C@H](CCCNC(=N)N)NC(=O)[C@H](C)NC(=O)[C@H](C)NC(=O)[C@H](CCCNC(=N)N)NC(=O)CNC(=O)[C@H](CCC(=O)O)NC(=O)[C@H](CC(C)C)NC(=O)[C@H](Cc1ccc(O)cc1)NC(=O)[C@H](CCCNC(=N)N)NC(=O)[C@H](CO)NC(=O)[C@@H](NC(=O)[C@H](CC(=O)O)NC(=O)[C@H](CO)NC(=O)[C@@H](NC(=O)[C@H](Cc1ccccc1)NC(=O)[C@@H](NC(=O)CNC(=O)[C@H](Cc1c[nH]cn1)NC(=O)C(C)(C)NC(=O)CCc1c[nH]cn1)[C@@H](C)O)[C@@H](C)O)C(C)C)C(=O)N[C@@H](C)C(=O)N[C@@H](Cc1c[nH]c2ccccc12)C(=O)N[C@@H](CC(C)C)C(=O)N[C@@H](CC(C)C)C(=O)N[C@@H](CCCCNC(=O)CC[C@H](NC(=O)CC[C@H](NC(=O)COCCOCCNC(=O)CC[C@H](NC(=O)CC[C@H](NC(=O)CCCCCCCCCCCCCCCCC(=O)O)C(=O)O)C(=O)O)C(=O)O)C(=O)O)C(=O)NCC(=O)N[C@@H](C)C(=O)NCC(=O)O` [Example 35, N^ε34-[(4S)-4-carboxy-4-[[(4S)-4-carboxy-4-[[2-[2-[2-[[(4S)-4-carboxy-4-[[(4S)-4-carboxy-4-(17-carboxyheptadecanoylamino)butanoyl]amino]butanoyl]amino]ethoxy]ethoxy]acetyl]amino]butanoyl]amino]butanoyl]-[Imp7,Aib8,His9,Arg18,Arg23,Arg26,Leu33,Ala36]-GLP-1-(7-37)-peptide] (Desaminohistidyl-[Aib]HGTFTSDVSRYLEGRAAREFIAWLLK([γGlu-γGlu-AEEA-γGlu-γGlu-C18 diacid])GAG-OH) the value was 18.8 nM.

Values taken from patent publication US9988430B2, “Stable GLP-1 based GLP-1/glucagon receptor co-agonists” (Novo Nordisk A/S, priority 2014, dated 2018).
